Test results taken from patent publication US6582902B1, “Method for deriving epitopes” (priority 1992, dated 2003).
No end group written: not given here.

Legend:
anti-g10 serum [1] = experiment: Western blot of E. coli / HeLa extracts probed with anti-g10 serum; format: binding, rabbit; settings: FIG. 3A lanes 5-8; serum diluted 1:2000
Source text: (§1) Panel A: Western blot of E. coli extracts containing various U1-A protein constructs. All extracts were produced from induced E. coli cells containing recombinant pET-8c T7 expression vectors in accordance with known techniques. See F. Studier et al., Meth. Enzym. 185, 60-89 (1991). U1-A cDNA was cloned into pET-8c either attached or not attached to the g10 peptide. Lanes: 1, 5 and 9: the pET-8c vector alone; 2, 6 and 10: g10-U1-A protein; 3, 7 and 11: U1-A protein; 4, 8 and 12: total HeLa cell extracts. Lanes 1-4 were probed with pre-immune rabbit serum; lanes 5-8 were probed with anti-g10 serum; and lanes 9-12 were probed with a U1/U2-specific autoimmune serum (patient). EW reacts with U1 RNA, U1-70K (70 kDa), U1-A (31 kDa) and U2-A′ (28.4 kDa) (lane 12). Panel B: Immunoprecipitation and competition analysis of [^35S]-methionine-labeled U1-A and g10-U1-A proteins expressed by in vitro transcription, and subsequent translation in rabbit reticulocyte lysates. Lanes: 1 and 2 show the amount of U1-A and g10-U1-A translation product, respectively, added to each immunoprecipitation reaction; 3: blank; 4 and 5: U1-A and g10-U1-A precipitated with serum EW (reactive with U1-A); 6 and 7: U1-A and g10-U1-A, respectively, precipitated with anti-g10 serum. In lanes 8-12, g10-U1-A was precipitated with anti-g10 serum in the presence of varying amounts of competitors as follows: lanes 8-11 contained the g10 peptide at concentrations of 27.8, 83.3, 250 and 750 nM, respectively; lane 12 contained a control peptide (sequence GKSRGFAFVEFK-amide) (SEQ ID NO:4) at a concentration of 25 mM. The faint lower band in all lanes represents either a degradation product or a premature translation termination product and is seen consistently in U1-A translations.
(§2) A thirteen amino acid peptide was synthesized representing the amino-terminus of g10-fusion proteins expressed from the Studier T7 expression vectors (F. Studier et al., Meth. Enzym. 185, 60-89 (1991)) (peptide sequence: MASMTGGQQMGRC-carboxyl amide (SEQ ID NO:11), purchased from Multiple Peptide Systems). […]

[2] = system: U1/U2-specific autoimmune serum (patient); experiment: Western blot probed with control anti-U1-A autoimmune serum (patient); format: binding, human; settings: FIG. 3A lanes 9-12
Source text: as §1, §2

[3] = system: g10-reactive antibodies (anti-g10 serum); experiment: Competition for immunoprecipitation of [35S] g10-U1-A fusion protein by anti-g10 serum; format: binding, rabbit; settings: FIG. 3B lanes 8-12; g10 peptide 27.8-750 nM; control peptide 25 mM
Source text: as §1
[^32P] labeled in vitro transcribed D10 RNA or [^35S] labeled in vitro translated g10 fusion protein (g10-U1A) was immunoprecipitated by the anti-g10 serum in the presence of various competitors. D10 RNA and g10 fusion protein bound in the immunoprecipitations were analyzed using denaturing polyacrylamide gels and autoradiography. […]

anti-g10 serum [4] = experiment: Competition for immunoprecipitation of [32P] D10 RNA by anti-g10 serum; format: binding, rabbit; settings: FIG. 5A (125 mg competitor) and FIG. 5B (g10 peptide 37-444 nM)
Protocol: [^32P] labeled in vitro transcribed D10 RNA or [^35S] labeled in vitro translated g10 fusion protein (g10-U1A) was immunoprecipitated by the anti-g10 serum in the presence of various competitors. D10 RNA and g10 fusion protein bound in the immunoprecipitations were analyzed using denaturing polyacrylamide gels and autoradiography. Panel A: D10 RNA immunoprecipitations with: 1, no competitor; 2, no g10 antiserum added; 3, 125 mg of g10 peptide; 4, 125 mg of bovine serum albumin; 5, 125 mg of control peptide (sequence ETPEEREERRR) (SEQ ID NO:7). Panel B: D10 immunoprecipitations after incubation with increasing amounts of g10 peptide. Lanes: 1, no competitor; 2, 37 nM; 3, 74 nM; 4, 148 nM; 5, 222 nM; 6, 444 nM. Panel C: immunoprecipitations of a g10 containing fusion protein (g10-U1-A) using various competitors. Lanes: 1, no competitor; 2, preimmune rabbit serum; 3, 7.4 nM g10 peptide; 4, 0.7 nM D10 RNA; 5, 0.7 nM unrelated RNA (cDNA encoding loop sequence: ACGTTCGTCG)(SEQ ID NO:8). Panel D: immunoprecipitation of g10-U1A fusion protein after incubation with increasing amounts of D10 RNA. Lanes: 1, no competitor; 2, 0.0175 nM; 3, 0.035 nM; 4, 0.35 nM; 5, 0.7 nM; 6, 1.05 nM.
Competition experiments were performed by addition of the various competitors to [^32P] labeled RNA or [^35S] labeled in vitro translated g10-snRNP-A fusion protein prior to immunoprecipitation. Bound RNAs were analyzed on 6% denaturing acrylamide gels and proteins on 10% SDS-PAGE gels, followed by autoradiography. Antibody-RNA complexes were formed in the presence of competitor g10 peptide or control peptide (FIG. 5A), or with increasing amounts of g10 peptide (FIG. 5B), and uncompeted RNA was recovered by immunoprecipitation.

anti-g10 serum [5] = experiment: Immunoprecipitation of [35S]-labeled in vitro translated proteins with anti-g10 serum; format: binding, rabbit; settings: FIG. 3B lanes 6-7
Source text: as §1, with “In lanes 8-12, g10-U1-A was precipitated with anti-g10 serum in the presence of varying amounts of competitors as follows: lanes 8-11 contained the g10 peptide at concentrations of 27.8, 83.3, 250 and 750 nM, respectively; lane 12 contained a control peptide (sequence GKSRGFAFVEFK-amide) (SEQ ID NO:4) at a concentration of 25 mM. The faint lower band in all lanes represents either a degradation product or a premature translation termination product and is seen consistently in U1-A translations.” left out

Q: For “authentic HeLa cell U1-A: endogenous U1-A (31 kDa) in total HeLa cell extracts”, which “reactivity with anti-g10 serum in Western blot” value (anti-g10 serum [1]) is on record?
A: not

Q: What about the “reactivity with control anti-U1-A serum in Western blot” value [2] of the same substance?
A: reacted

Q: Which results are given for “MASMTGGQQMGRC-carboxyl amide (MASMTGGQQMGRC-NH2) [g10 peptide, reference compound]”?
A: inhibition of anti-g10 antibody binding to g10-U1-A by free peptide [3]: inhibited; effect of competitor on D10 RNA precipitation by the anti-g10 serum (anti-g10 serum [4]): inhibited RNA binding

Q: For “bovine serum albumin: bovine serum albumin used as control competitor”, which “effect of competitor on D10 RNA precipitation by the anti-g10 serum” value (anti-g10 serum [4]) is on record?
A: neither bovine serum albumin nor an unrelated peptide showed any effect

Q: With ETPEEREERRR [unrelated peptide] as the substance, how does the “effect of competitor on D10 RNA precipitation by the anti-g10 serum” value (anti-g10 serum [4]) read?
A: neither bovine serum albumin nor an unrelated peptide showed any effect

Q: Which results are given for “recombinant U1-A: U1-A protein expressed without the g10 peptide”?
A: reactivity with anti-g10 serum in Western blot (anti-g10 serum [1]): not; reactivity with control anti-U1-A serum in Western blot [2]: reacted; precipitation by anti-g10 serum (immunoprecipitation) (anti-g10 serum [5]): not

Q: Which “reactivity with anti-g10 serum in Western blot” value (anti-g10 serum [1]) does the source give for “g10-U1-A fusion protein: g10-tagged U1-snRNP A protein” here?
A: reacted

Q: And the “reactivity with control anti-U1-A serum in Western blot” value [2]?
A: reacted

Q: And the “precipitation by anti-g10 serum (immunoprecipitation)” value (anti-g10 serum [5])?
A: precipitated
